Entries after “also recorded” stand apart in the source; their conditions may differ.
Columns and labels:
U2OS cells = test: Cell cycle distribution (BrdU, flow cytometry); type: cell-based, human; conditions: highest tested concentration 0.6 μM, 24 h; slight decrease of G1, increase of G2
Method: Apoptosis was measured by flow cytometry using the Annexin V FITC assay kit based on the protocol from the manufacturer (Invitrogen). For BrdU (bromodeoxyuridine (5-bromo-2′-deoxyuridine)) analysis, after treatments, cells were labeled with BrdU (Sigma) for 30 min before fixation with 70% cold ethanol (−20 °C). The next day, cells were washed with cold phosphate-buffered saline and incubated with 2 M HCl for 5 min at room temperature. After adjusting the pH with 0.1 M sodium borate (pH 8.5), cells were incubated in 1% bovine serum albumin with 0.1% Triton X-100 for 30 min and mouse anti-BrdU antibody (1:400) for 1 h to detect BrdU labeling. After washing, cells were incubated with secondary antibody (fluorescein isothiocyanate 1:400) for 30 min. […] For fluorescence-activated cell sorting analysis, the percentage of cells with positive BrdU staining in each phase of the cell cycle was quantitated with the CellQuest software and ModFit software (Verity Software House Inc., Topsham, ME, USA).
Figure S7: Cell cycle distribution of U2OS cells upon treatment with NSC-105808. (a) U2OS cells were treated with DMSO or the indicated concentration of NSC-105808 for 24 hrs followed by a pulse of BrdU (10 µM) for 30 minutes and then analyzed by flow cytometry. […] (c) Quantitation of the G1 cell population. […]

[1] = system: MCF10A cells with inducible H-Ras expression; test: MTT proliferation, MCF10A with inducible H-Ras; type: cell-based, human; conditions: 48-h treatment, doxycycline induction
Method: (§1) Figure 5 Oncogene induction enhances sensitivity of cancer cells to NSC-105808. (a-e) Graphs showing proliferation of indicated cell lines in response to a 48-h treatment with the indicated concentrations of NSC-105808. Proliferation relative to cells treated with vehicle alone was determined by the 3-(4,5-dimethylthiazol-2-yl)-2,5-diphenyltetrazolium bromide (MTT) assay. Each value represents the mean±s.e.m. from three independent experiments. (a) Proliferation of control pancreatic epithelial cells DT-PD59 and transformed pancreatic cancer cells AsPC-1 and PANC-1. (b) Proliferation of normal breast epithelial cells MCF10A and breast cancer cells Hs578T and BT549. (c) Proliferation of MCF10A cells with or without H-Ras expression. H-Ras was induced with doxycycline (2 μg/ml). […]
(§2) Cell proliferation was measured by 3-(4,5-dimethylthiazol-2-yl)-2,5-diphenyltetrazolium bromide (Sigma) reduction (Supplementary Materials and Methods).
(§3) To determine the cell proliferation rate, 1000 cells/well were seeded in a 96-well plate in a total volume of 100 µl in triplicate in each experiment. […] Plates were read at 490 nm and 650 nm (background) in a
(§4) microplate reader (Molecular Devices). After the subtraction of background, cell viability was calculated as fold change relative to control cells.

DNA2 protein level = test: Western blot of cellular DNA2 protein level; type: cell-based, human; conditions: U2OS, PANC-1, Hs578T; up to 12 hrs
Method: Figure S8. Analysis of DNA2 protein levels in cells treated with NSC-105808. U2OS (a), PANC-1 (b) and Hs578T (c) cells were treated with the indicated concentrations of NSC-105808 for 4 hours (right) or with a single concentration of NSC-105808 (0.3 µM for U2OS and Hs578T cells; 0.6 µM for PANC-1 cells) for 0, 4, 8, or 12 hrs (left). The results were quantified and are shown below each panel, with the error bars representing the mean ± SD of three independent experiments.

[2] = system: DT-PD77 cells with E6/E7 oncoprotein versus DT-PD59; test: MTT proliferation, DT-PD59 versus E6/E7 DT-PD77; type: cell-based, human; conditions: 48-h treatment
Method: as §1, §2, §3, §4

Bloom syndrome (BLM) = molecular target: T1, Bloom syndrome (BLM) (Homo sapiens, UniProt P54132); test: dsDNA unwinding by BLM; type: biochemical; conditions: 10 µM
T1 construct: made in house
Method: Figure S2. […] (a) Analysis of 5’ flap processing by hDNA2 in presence of the compounds at the indicated concentration. DNA2 (2.5 nM) was incubated with the Y DNA substrate (5 nM ends) and the indicated concentration of inhibitor. (b) Plots showing quantitation of the experiments shown in a. Plotted are the average data from three independent experiments with the error bars representing one standard deviation. (c) Analysis of dsDNA unwinding by BLM. BLM (4, 8 and 16 nM), RPA (100 nM) and internally radiolabelled dsDNA (0.5 nM ends) was incubated for 20 min at 37^ºC in presence of either DMSO or NSC-105808 (10 µM) and the products were resolved on a 1% agarose gel. (d) Plots showing quantitation of the experiments shown in c. Plotted are the average data from three independent experiments with the error bars representing one standard deviation. (e) Analysis of the degradation of a 2 kb internally labeled dsDNA (0.5 nM ends) by EXO1 (5 nM) in presence of NSC-105808 (10 µM). (f) Plot showing quantitation of the experiment in e. […] 100 nM hDNA2 was incubated with γ^32P-ATP in the presence of oligonucleotide ssDNA (200 nM) for 20 minutes at 37^ºC in presence of either DMSO or inhibitor (10 µM) and the products were resolved on a TLC plate. (h) Analysis of hDNA2 binding to DNA. […]

[3] = system: Hs578T and BT549 versus MCF10A cells; test: MTT proliferation, breast cell lines; type: cell-based, human; conditions: 48-h treatment
Method: as §1, §2, §3, §4

T1 sequence (P54132 whole entry): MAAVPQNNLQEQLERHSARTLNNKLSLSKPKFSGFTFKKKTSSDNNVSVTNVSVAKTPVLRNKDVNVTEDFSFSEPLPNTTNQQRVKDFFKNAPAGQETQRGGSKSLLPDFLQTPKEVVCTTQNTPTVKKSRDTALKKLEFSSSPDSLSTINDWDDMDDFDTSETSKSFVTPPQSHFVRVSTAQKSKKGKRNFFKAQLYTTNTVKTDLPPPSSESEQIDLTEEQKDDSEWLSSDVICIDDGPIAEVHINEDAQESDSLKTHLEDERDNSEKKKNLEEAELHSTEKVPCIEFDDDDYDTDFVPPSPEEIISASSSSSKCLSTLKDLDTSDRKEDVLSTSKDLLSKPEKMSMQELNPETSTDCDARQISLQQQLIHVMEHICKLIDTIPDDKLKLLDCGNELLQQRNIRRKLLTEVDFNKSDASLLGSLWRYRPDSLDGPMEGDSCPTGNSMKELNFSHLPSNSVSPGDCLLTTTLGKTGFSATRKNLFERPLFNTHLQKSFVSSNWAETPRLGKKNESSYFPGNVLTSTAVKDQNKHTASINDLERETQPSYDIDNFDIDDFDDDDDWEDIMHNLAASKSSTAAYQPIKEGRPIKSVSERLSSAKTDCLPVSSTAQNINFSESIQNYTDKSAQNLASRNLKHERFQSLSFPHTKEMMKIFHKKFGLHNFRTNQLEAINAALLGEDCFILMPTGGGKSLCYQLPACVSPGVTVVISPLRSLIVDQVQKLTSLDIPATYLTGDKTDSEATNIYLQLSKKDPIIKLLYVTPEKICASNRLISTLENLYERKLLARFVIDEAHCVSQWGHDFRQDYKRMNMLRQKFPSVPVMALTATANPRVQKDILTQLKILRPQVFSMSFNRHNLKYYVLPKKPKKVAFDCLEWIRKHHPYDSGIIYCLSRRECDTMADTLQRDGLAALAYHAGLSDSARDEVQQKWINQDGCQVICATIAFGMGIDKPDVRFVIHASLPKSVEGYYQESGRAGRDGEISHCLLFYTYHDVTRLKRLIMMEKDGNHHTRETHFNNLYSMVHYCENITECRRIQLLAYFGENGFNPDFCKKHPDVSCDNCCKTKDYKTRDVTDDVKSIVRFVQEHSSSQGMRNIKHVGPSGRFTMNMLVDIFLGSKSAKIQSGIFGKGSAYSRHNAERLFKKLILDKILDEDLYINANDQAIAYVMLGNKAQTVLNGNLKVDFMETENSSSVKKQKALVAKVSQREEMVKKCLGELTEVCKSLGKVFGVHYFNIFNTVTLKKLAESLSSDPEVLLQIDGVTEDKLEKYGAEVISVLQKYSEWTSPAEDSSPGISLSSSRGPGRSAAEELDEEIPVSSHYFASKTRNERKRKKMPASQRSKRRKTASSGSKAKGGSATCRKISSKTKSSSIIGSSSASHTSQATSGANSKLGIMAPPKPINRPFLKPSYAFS

SMILES: NC1=C(Br)C(=O)c2ncccc2C1=O [NSC-105808, 6-amino-7-bromoquinoline-5,8-dione]
- Impact on cell cycle distribution (U2OS cells): only a mild impact
- Sensitivity upon activation of H-Ras [1]: increased sensitivity
- Impact on cellular level of DNA2 protein (DNA2 protein level): No statistically significant difference; also recorded: no impact
- Sensitivity in cells with E6/E7 oncoprotein-induced replication stress [2]: higher
- Effect on ability of Bloom syndrome to unwind DNA (Bloom syndrome (BLM)): no effect
- Sensitivity of transformed breast cancer cells compared with MCF10A [3]: more sensitive

— paper PMC5520492, “Inhibition of DNA2 nuclease as a therapeutic strategy targeting replication stress in cancer cells” (Oncogenesis, 2017)
